Numbering of substitutions follows the chain as printed. Where “and” joins values, the source holds several entries; their conditions need not be identical. Equal entries are not always repeated.
Columns and labels:
[1] = test system: BMP2-induced luciferase activity in 293T-BRE-reporter cells; assay: BMP2-induced luciferase reporter activity in 293T-BRE reporter cells; assay type: cell-based; details: 30 min pre-treatment, 5 ng/ml BMP2, 6 hours
Protocol: BMP2-dependent luciferase reporter activation was quantified after 6 hours using the Promega BrightGLO luciferase system on a Tecan Infinity M1000 Pro plate reader.
FIG. 10 provides a bar graph depicting inhibition of BMP2-induced luciferase activity in 293T-BRE-reporter cells. Approximately 20,000 cells per well were plated in a 96-well plate and allowed to attach overnight. […] Cells were then stimulated with vehicle or 5 ng/ml BMP2 for 6 hours. Luciferase transactivation was assessed using the Promega BrightGLO luciferase system (Promega) and the signal was quantified using a plate reader (M1000 Pro).

ACVR1^R206H = molecular target: T1, ACVR1^R206H (Homo sapiens, UniProt Q04771, R206H); assay: Promega NanoBRET live-cell target engagement, ACVR1 (R206H); assay type: cell-based; details: in cellulo; NI = No inhibition at 40 μM
T1 sequence (Q04771 21-509 R206H): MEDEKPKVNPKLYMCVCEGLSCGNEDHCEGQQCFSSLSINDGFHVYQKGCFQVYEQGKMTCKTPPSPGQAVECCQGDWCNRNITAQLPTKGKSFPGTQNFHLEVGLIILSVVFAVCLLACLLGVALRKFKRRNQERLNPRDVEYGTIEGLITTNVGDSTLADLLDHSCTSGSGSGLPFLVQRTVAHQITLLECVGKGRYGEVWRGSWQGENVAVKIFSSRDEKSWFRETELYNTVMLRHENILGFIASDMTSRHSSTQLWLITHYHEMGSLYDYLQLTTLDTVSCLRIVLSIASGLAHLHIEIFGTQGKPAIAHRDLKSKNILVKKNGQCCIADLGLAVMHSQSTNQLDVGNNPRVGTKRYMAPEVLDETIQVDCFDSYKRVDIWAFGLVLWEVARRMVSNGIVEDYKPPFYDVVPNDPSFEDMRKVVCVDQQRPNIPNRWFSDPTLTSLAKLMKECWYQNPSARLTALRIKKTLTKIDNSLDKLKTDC
Description: (§1) The Promega NanoBRET target engagement system involves cell-based competitive displacement of a fluorescent NanoBRET tracer bound reversibly to a NanoLuc fusion protein. Test compounds displace the tracer dependent on their affinity for the target and reduce […] the NanoBRET signal. […]

ACVRL1 [2] = molecular target: T2, ACVRL1 (Homo sapiens, UniProt P37023); assay: ThermoFisher (Lantha) kinase assay, inhibition of ACVRL1; assay type: biochemical; details: in vitro, NA = not active at 1 μM
T2 construct: purchased ThermoFisher

BMPR1A = molecular target: T3, BMPR1A (Homo sapiens, UniProt P36894); assay: ThermoFisher Lantha kinase screen, BMPR1A; assay type: biochemical; details: in vitro
T3 construct: purchased ThermoFisher
Description: (§2) FIGS. 3A-3B depict a representation of KINOMEscan (Eurofins) binding data of CDD-2342 across the human kinome phylogenetic tree (FIG. 3A) and ThermoFisher Lantha kinase screen (FIG. 3B). FIG. 3A: The size of the circles (indicated with lines) are correlated with the affinity of ligand binding (i.e., larger circle, greater binding affinity). […] FIG. 3B: Using the ThermoFisher Lantha kinase screening assay, kinase specificity for ACVR1>ACVRL1>>BMPR1A>BMPR1B was observed.
(§3) Additionally, CDD-2342 is a >1000-fold better inhibitor of ACVR1 than non-TGFβ family kinases (FIGS. 3A-3B).

BMPR1B = molecular target: T4, BMPR1B (Homo sapiens, UniProt O00238); assay: ThermoFisher Lantha kinase screen, BMPR1B; assay type: biochemical; details: in vitro
T4 construct: purchased ThermoFisher
Description: as §2, §3

[3] = Metabolic stability in mouse liver microsomes; assay type: in vitro ADME; details: some cells add hours in brackets
Description: (§4) Exemplary compounds of the present disclosure have been evaluated for metabolic stability in mouse and human liver microsomes.

ACVRL1 [4] = molecular target: T2, ACVRL1; assay: Promega NanoBRET live-cell target engagement, ACVRL1; assay type: cell-based; details: in cellulo; NI = No inhibition at 40 μM
Description: The Promega NanoBRET target engagement system involves cell-based competitive displacement of a fluorescent NanoBRET tracer bound reversibly to a NanoLuc fusion protein. Test compounds displace the tracer dependent on their affinity for the target and reduce loss of the NanoBRET signal.
Further, HEK29T cells with stable expression of a BMP reporter element driving luciferase expression can be used to test inhibition of BMP-induced luciferase transactivation. […] Additionally, utilizing the HEPG2 cell system described herein, responsiveness to activin and induction of Hepcidin (HAMP) gene expression can be probed in the presence and absence of ACVR1 inhibitors, as well as the influence of tacrolimus on activin-induced hepcidin gene expression.
Thus, the in cellulo assays described herein comprise a luciferase reporter cell line system.

ACVR1^WT = molecular target: T5, ACVR1^WT (Homo sapiens, UniProt Q04771); assay: Promega NanoBRET live-cell target engagement, ACVR1; assay type: cell-based; details: in cellulo; NI = No inhibition at 40 μM
T5 sequence (Q04771 21-509): T1 sequence (Q04771 21-509 R206H) with H186R
Description: as §1

human kinome = assay: KINOMEscan (Eurofins) binding across the human kinome; details: tested at a dose of 1 μM
Description: as §2

[5] = Metabolic stability in human liver microsomes; assay type: in vitro ADME; details: some cells add hours in brackets
Description: as §4

ACVR1 = molecular target: T6, ACVR1 (Homo sapiens, UniProt Q04771); assay: ThermoFisher (Lantha) kinase assay, inhibition of ACVR1; assay type: biochemical; details: for IC50: ThermoFisher Assay, in vitro
T6 construct: purchased ThermoFisher
T6 sequence (Q04771 21-509): T1 sequence (Q04771 21-509 R206H) with H186R

[6] = test system: pSMAD1/5 in WT fibroblasts (WT GM01652); assay: BMP2-induced pSMAD1/5 Western blot in primary WT fibroblasts; assay type: cell-based, human; details: 1, 5, 25 μM, 30 min pre-treatment, 5 ng/mL BMP2 45 min
Protocol: (§5) FIG. 11 depicts inhibition of phosphorylated SMAD1/5 (pSMAD1/5) in primary WT and FOP fibroblasts. […] Subsequently, the fibroblasts were treated with vehicle (i.e., DMSO) or 5 ng/mL BMP2 in the presence of the inhibitors for 45 minutes. Cell lysates were then probed with antibodies against pSMAD1/5, total SMAD5, total SMAD1, and GAPDH (i.e., loading control) using a Western blot.

[7] = Plasma ALT and AST levels in mice after treatment; assay type: in vivo; details: 24 h post-administration, individual mice No. 1-4
Description: (§6) The present disclosure further provides exemplary pharmacokinetic data for compound CDD-2789.

HepG2 cells = assay: Cytotoxicity in HepG2 cells (Cell Titer GLO, cellular ATP); assay type: cell-based; details: 24 hours, concentrations up to 100 μM
[8] = test system: pSMAD1/5 in FOP fibroblasts (FOP GM00513); assay: BMP2-induced pSMAD1/5 Western blot in primary FOP fibroblasts; assay type: cell-based, human; details: 1, 5, 25 μM, 30 min pre-treatment, 5 ng/mL BMP2 45 min
Protocol: as §5

[9] = Pharmacokinetic study in mice, oral gavage; details: mouse, in vivo, 50 mg/kg oral gavage, n = 4, mean ± SD
Description: as §6

T2 sequence (P37023 22-503): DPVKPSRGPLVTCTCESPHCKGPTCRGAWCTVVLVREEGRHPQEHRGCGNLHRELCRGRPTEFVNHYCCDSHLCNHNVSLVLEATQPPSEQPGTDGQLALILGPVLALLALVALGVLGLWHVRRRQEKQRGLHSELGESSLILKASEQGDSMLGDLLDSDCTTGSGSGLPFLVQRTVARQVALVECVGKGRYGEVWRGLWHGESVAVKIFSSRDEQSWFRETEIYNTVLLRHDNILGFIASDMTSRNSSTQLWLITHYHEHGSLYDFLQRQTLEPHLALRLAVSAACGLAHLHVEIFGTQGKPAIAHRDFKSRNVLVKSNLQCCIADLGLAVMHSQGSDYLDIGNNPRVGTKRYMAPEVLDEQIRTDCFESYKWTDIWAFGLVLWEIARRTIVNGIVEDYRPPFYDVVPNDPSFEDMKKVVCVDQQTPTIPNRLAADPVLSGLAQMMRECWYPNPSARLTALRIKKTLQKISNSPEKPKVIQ
T3 sequence (P36894 24-532): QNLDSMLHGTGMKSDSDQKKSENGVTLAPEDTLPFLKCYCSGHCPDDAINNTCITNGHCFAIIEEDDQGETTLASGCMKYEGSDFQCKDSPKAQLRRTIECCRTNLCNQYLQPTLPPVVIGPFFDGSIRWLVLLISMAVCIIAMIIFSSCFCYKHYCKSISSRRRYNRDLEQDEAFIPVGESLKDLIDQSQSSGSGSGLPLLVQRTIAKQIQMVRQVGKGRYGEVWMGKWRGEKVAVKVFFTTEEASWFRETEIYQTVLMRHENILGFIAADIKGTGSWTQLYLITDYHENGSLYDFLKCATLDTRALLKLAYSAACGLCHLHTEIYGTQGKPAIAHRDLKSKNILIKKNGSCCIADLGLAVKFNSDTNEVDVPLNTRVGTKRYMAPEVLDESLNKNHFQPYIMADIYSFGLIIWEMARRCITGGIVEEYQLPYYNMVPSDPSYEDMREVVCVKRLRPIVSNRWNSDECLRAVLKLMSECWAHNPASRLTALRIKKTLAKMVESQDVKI
T4 sequence (O00238 14-502): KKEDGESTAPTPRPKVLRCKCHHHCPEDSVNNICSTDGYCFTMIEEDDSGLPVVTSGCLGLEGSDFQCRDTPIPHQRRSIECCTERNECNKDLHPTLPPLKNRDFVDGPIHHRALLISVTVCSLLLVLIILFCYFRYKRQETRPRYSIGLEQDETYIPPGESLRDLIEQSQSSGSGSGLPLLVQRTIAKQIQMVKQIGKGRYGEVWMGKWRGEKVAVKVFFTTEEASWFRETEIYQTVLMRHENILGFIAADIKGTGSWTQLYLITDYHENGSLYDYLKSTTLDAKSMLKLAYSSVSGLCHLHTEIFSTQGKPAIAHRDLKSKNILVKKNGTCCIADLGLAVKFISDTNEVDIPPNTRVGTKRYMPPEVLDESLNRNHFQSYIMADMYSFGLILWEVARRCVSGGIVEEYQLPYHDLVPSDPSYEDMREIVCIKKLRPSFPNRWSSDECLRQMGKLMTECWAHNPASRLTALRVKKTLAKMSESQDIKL

| Compound | IC50 (ACVR1^R206H) | IC50 (ACVRL1 [2]) | Metabolism MLM [3] | IC50 (ACVRL1 [4]) | IC50 (ACVR1^WT) | Metabolism HLM [5] | IC50 (ACVR1) | other results |
| --- | --- | --- | --- | --- | --- | --- | --- | --- |
| COc1cc(-c2nc3ccc(C(=O)NCCCN4CCN(c5cccc(C)c5C)CC4)cc3n2C2CCC2)cc(OC)c1OC [CDD-2342, 1-cyclobutyl-N-(3-(4-(2,3-dimethylphenyl)piperazin-1-yl)propyl)-2-(3,4,5-trimethoxyphenyl)-1H-benzo[d]imidazole-6-carboxamide] | 1.47 µM and 1.48 µM | 0.0188 µM | 0 min | 11.1 µM and 11.4 µM | 0.83 µM and 0.81 µM | 0.5 min | 0.0061 µM | inhibition of BMP2-induced reporter activity ([1]; 1 μM, 5 μM, 10 μM): significantly inhibits; IC50 (BMPR1A): 0.257 µM; IC50 (BMPR1B): 0.687 µM; off-target binding across the human kinome (human kinome): minimal off-target binding; fold better inhibitor of ACVR1 than non-TGFβ family kinases (ACVR1; FIGS. 3A-3B): > 1000 fold; kinase specificity (rank order) (ACVR1; ThermoFisher Lantha kinase screening assay, FIG. 3B): ACVR1>ACVRL1>>BMPR1A>BMPR1B |
| COc1cc(-c2nc3ccc(C(=O)NCCCN(C)C)cc3n2C2CCC2)cc(OC)c1OC [CDD-2789, 1-cyclobutyl-N-(3-(dimethylamino)propyl)-2-(3,4,5-trimethoxyphenyl)-1H-benzo[d]imidazole-6-carboxamide] | – | 0.0099 µM | – | – | – | – | – | inhibition of BMP2-induced luciferase activity ([1]; 0.2, 1, 5, 25 μM): Potent inhibition; suppression of BMP2-induced pSMAD1/5 activation, WT fibroblasts [6]: suppressed; Metabolism MLM (Min) [3]: 505 (8.4 h) Min; Plasma ALT [7]: 21.83 IU/L and 165.48 IU/L and 25.81 IU/L and 23.60 IU/L; Plasma AST [7]: 30.76 IU/L and 141.26 IU/L and 42.08 IU/L and 55.52 IU/L; cytotoxicity (cell viability, cellular ATP) (HepG2 cells): no cytotoxicity; Metabolism HLM (Min) [5]: 2767 (46.1 h) Min; suppression of BMP2-induced pSMAD1/5 activation, FOP fibroblasts [8]: suppressed; half-life [9]: ~3.42 h |
| N-(3-(4-benzoylpiperazin-1-yl)propyl)-1-cyclobutyl-2-(3,4,5-trimethoxyphenyl)-1H-benzo[d]imidazole-6-carboxamide [CDD-2791] | 2.6 µM | 0.0146 µM | 2.8 min | > 40 µM | 1.08 µM | 15.4 min | 0.0079 µM | – |
